# In PMC9457997, “2-(Nitroaryl)-5-Substituted-1,3,4-Thiadiazole Derivatives with Antiprotozoal Activities: In Vitro and In Vivo Study” (Molecules, 2022):
# Read-outs that look alike come from different tables or passages of the source.
# Key:
# in vitro = conditions: rat
# [1] = test system: T. b. rhodesiense, strain STIB 900 trypomastigotes; assay: In vitro activity against T. b. rhodesiense STIB 900 bloodstream forms; format: cell-based; conditions: Trypanosoma brucei, read-out: T. b. rhodesiense IC50
# [2] = test system: T. cruzi, strain Tulahuen C4 amastigotes; assay: In vitro activity against T. cruzi amastigotes; format: cell-based; conditions: Trypanosoma cruzi, read-out: T. cruzi IC50
# Procedure: Although all of the compounds had been tested against Leishmania major promastigotes in our previous works, to deeper evaluate the antitrypanosomatid potential of the selected nitroimidazole derivatives, their activity was measured against L. donovani axenic amastigotes and T. cruzi amastigotes (Table 2). Miltefosine and benznidazole were used as reference drugs. Compounds 18a and 18g were also tested against L. donovani intracellular amastigotes in peritoneal murine macrophages in a further assay. […]. In vitro activity against the protozoan parasites T. b. rhodesiense, T.cruzi, L. donovani and cytotoxicity assessment against L6 cells were determined as reported previously. The following strains, parasite forms, and positive controls were used: T. b. rhodesiense STIB 900 bloodstream forms, melarsoprol (received from WHO, Arsobal Sanofi); T.cruzi Tulahuen C2C4 intracellular amastigotes, benznidazole (received from DNDi synthesized by Epichem Pty Ltd., Murdoch, Australia); L. donovani MHOM-ET-67/L82 axenically grown amastigotes and intracellular amastigotes, miltefosine (Sigma M5571). L6 rat skeletal myoblasts (ATCC CRL-1458), podophyllotoxin (Sigma P4405).
# [3] = test system: L. donovani, strain MHOM-ET-67/L82 axenically grown amastigotes; assay: In vitro activity against L. donovani axenic amastigotes; format: cell-based; conditions: for IC50: Leishmania donovani, strain MHOM-ET-67/L82 axenically grown amastigotes, means of two independent assays; for TDR criteria class against L. donovani amastigotes: TDR criteria for antiparasitic activity
# Procedure: (§1) Miltefosine and benznidazole were used as reference drugs. […] In vitro activity against the protozoan parasites T. b. rhodesiense, T.cruzi, L. donovani and cytotoxicity assessment against L6 cells were determined as reported previously. The following strains, parasite forms, and positive controls were used: T. b. rhodesiense STIB 900 bloodstream forms, melarsoprol (received from WHO, Arsobal Sanofi); T.cruzi Tulahuen C2C4 intracellular amastigotes, benznidazole (received from DNDi synthesized by Epichem Pty Ltd., Murdoch, Australia); L. donovani MHOM-ET-67/L82 axenically grown amastigotes and intracellular amastigotes, miltefosine (Sigma M5571).
# [4] = test system: L. donovani intracellular amastigotes in peritoneal murine macrophages; assay: In vitro activity against L. donovani intracellular amastigotes; format: cell-based; conditions: Leishmania donovani, Macrophage, means of two independent assays
# Procedure: as §1
# Cytotoxicity in L6 cells = conditions: rat
# T. b. rhodesiense = conditions: cited from earlier work
# T. b. brucei = conditions: cited from earlier work
# [5] = test system: T. b. rhodesiense STIB 900; assay: T. b. rhodesiense STIB 900 acute mouse model of HAT; format: in vivo; conditions: for Cured/Infected / Mean Survival Days (MSD): 4 × 50 mg/kg i.p., acute mouse model STIB 900
# Procedure: […]. All of these compounds were administered at an intraperitoneal dose of 50 mg/kg/day for 4 days. […] A total of three of the four mice treated with morpholine derivative 18b were cured and the parasite was not found in the blood of one mouse until day 60 of infection. […] All of the mice treated with compound 18f survived 60 days, but one mouse was parasite positive. Compound 18d presented the least cure rate; a total of three mice were parasite positive and died between days 15 and 20, and one mouse survived.
# The in vivo efficacy was determined in the T. b. rhodesiense STIB 900 acute mouse model that mimics the first stage of the disease as described earlier. In vivo efficacy studies in mice were conducted at the Swiss Tropical and Public Health Institute (Basel) (License number 2813), according to the rules and regulations for the protection of animal rights (“Tierschutzverordnung”) of the Swiss “Bundesamt für Veterinärwesen”. They were approved by the veterinary office of Canton Basel-Stadt, Switzerland.
# T. brucei = conditions: cited from earlier work
# [6] = design: method as in PMID 29191556; conditions: cited from earlier work
# HAT mouse model = conditions: cited from earlier work
# T. b. gambiense = conditions: gambiense HAT patients; cited from earlier work
# [7] = strain STIB 900 trypomastigotes (BSF form), means of two independent assays
# [8] = read-out: IC50 against T. b. rhodesiense
# [9] = read-out: IC50 against T. b. brucei
smiles,measurement,setting,value
CN1CCN(c2nnc(-c3ccc([N+](=O)[O-])o3)s2)CC1 [Compound 16d],IC50,in vitro,1360 nM
same,IC50,[1]; [7],241 nM
CC(=O)N1CCN(c2nnc(-c3ccc([N+](=O)[O-])o3)s2)CC1 [Compound 16f],IC50,in vitro,2490 nM
same,IC50,[1]; [7],81 nM
O=[N+]([O-])c1ccc(-c2nnc(N3CCNCC3)s2)s1 [Compound 17c],IC50,in vitro,6380 nM
same,IC50,[1]; [7],346 nM
Cn1c([N+](=O)[O-])cnc1-c1nnc(N2CCCCC2)s1 [Compound 18a],IC50,in vitro,> 306000 nM
same,IC50,[2],897 nM
same,IC50,[3],476 nM
same,TDR criteria class against L. donovani amastigotes,[3],active
same,IC50,[1]; [7],510 nM
same,IC50,[4],4760 nM
COc1cc([C@@H]2c3cc4c(cc3[C@H](O)[C@H]3COC(=O)[C@H]23)OCO4)cc(OC)c1OC [Podophyllotoxin],IC50,Cytotoxicity in L6 cells,6 nM
CN1CCN(c2nnc(-c3ccc([N+](=O)[O-])s3)s2)CC1 [Compound 17d],IC50,in vitro,40800 nM
same,IC50,[1]; [7],1150 nM
C=CCOc1ccc(NC(=O)c2ccc([N+](=O)[O-])o2)cc1C(F)(F)F [Compound 9],IC50,T. b. rhodesiense; [8],2.9 nM
same,IC50,T. b. brucei; [9],2.4 nM
"CCCCCCCCCCCCCCCCOP(=O)([O-])OCC[N+](C)(C)C [Miltefosine, reference compound]",IC50,[3],359 nM
same,IC50,[4],1840 nM
CN(C)c1nc(N/N=C/c2ccc([N+](=O)[O-])o2)nc(N(C)C)n1 [Compound 7],IC50,T. b. rhodesiense; read-out: IC50 against trypomastigotes of T. brucei rhodesiense,3 nM
O=[N+]([O-])c1ccc(-c2nnc(N3CCN(c4ccccc4)CC3)s2)s1 [Compound 17e],IC50,in vitro,56500 nM
same,IC50,[1]; [7],11800 nM
O=[N+]([O-])c1ccc(-c2nnc(N3CCCCC3)s2)o1 [Compound 16a],IC50,in vitro,2490 nM
same,IC50,[1]; [7],242 nM
O=C1NC(c2ccccc2)=CN2C=C([N+](=O)[O-])NC12 (stereo not drawn) [Compound 5a],IC50,T. b. brucei; read-out: IC50 against T. brucei brucei,220 nM
Cn1c([N+](=O)[O-])cnc1-c1nnc(N2CCOCC2)s1 [Compound 18b],IC50,in vitro,265000 nM
same,IC50,[2],294 nM
same,IC50,[3],445 nM
same,TDR criteria class against L. donovani amastigotes,[3],active
same,Cured/Infected,[5],3/4
same,Mean Survival Days (MSD),[5],>60 days
same,IC50,[1]; [7],145 nM
O=[N+]([O-])c1ccc(-c2nnc(N3CCOCC3)s2)s1 [Compound 17b],IC50,in vitro,> 302000 nM
same,IC50,[1]; [7],1180 nM
CCCCCCCOC(=O)N/N=C/c1ccc([N+](=O)[O-])o1 [Compound 8],IC50,T. brucei; read-out: IC50 against the BSF form of T. brucei,120 nM
O=C(N/N=C\c1coc([N+](=O)[O-])c1)C12CC3CC(C1)CC(C(=O)N/N=C/c1ccc([N+](=O)[O-])o1)(C3)C2 [Compound 10],IC50,T. brucei; read-out: IC50 against T. brucei,75 nM
O=[N+]([O-])c1ccc(-c2nnc(N3CCOCC3)s2)o1 [Compound 16b],IC50,in vitro,5670 nM
same,IC50,[1]; [7],914 nM
O=[N+]([O-])c1cn2c(n1)[S+]([O-])CC(OCc1ccc(OC(F)(F)F)cc1)C2 (stereo not drawn) [Compound 3],metabolic stability,[6],good metabolic stability
same,cure rate in an acute infection mouse model of HAT,HAT mouse model,100%
O=[N+]([O-])c1ccc(-c2nnc(N3CCN(c4ccccc4)CC3)s2)o1 [Compound 16e],IC50,in vitro,6430 nM
same,IC50,[1]; [7],540 nM
CSc1ccc(OCc2ncc([N+](=O)[O-])n2C)cc1 [Fexinidazole],cure rate,T. b. gambiense,91%
Cn1c([N+](=O)[O-])cnc1-c1nnc(N2CCNCC2)s1 [Compound 18c],IC50,in vitro,140000 nM
same,IC50,[2],125 nM
same,IC50,[3],3230 nM
same,death during treatment,"[5]; 50 mg/kg/day i.p., mouse excluded from the experimental group",One mouse died on day six
same,Cured/Infected,[5],3/3
same,Mean Survival Days (MSD),[5],>60 days
same,IC50,[1]; [7],12 nM
O=[N+]([O-])c1ccc(-c2nnc(N3CCNCC3)s2)o1 [Compound 16c],IC50,in vitro,1060 nM
same,IC50,[1]; [7],60 nM
O=[N+]([O-])c1ccc(-c2nnc(N3CCCCC3)s2)s1 [Compound 17a],IC50,in vitro,226000 nM
same,IC50,[1]; [7],647 nM
O=c1c2nc([N+](=O)[O-])cn2ccn1Cc1ccc(-c2ccc(OC(F)(F)F)cc2)cn1 [Compound 6],IC50,T. b. brucei; [9],2 nM
Cn1c([N+](=O)[O-])cnc1-c1nnc(N2CCN(c3ccccc3)CC2)s1 [Compound 18e],IC50,in vitro,163000 nM
same,IC50,[1]; [7],285 nM
Cn1c([N+](=O)[O-])cnc1-c1nnc(N2CCN(C(=O)c3ccccc3)CC2)s1 [Compound 18g],IC50,[2],300 nM
same,TDR criteria class against L. donovani amastigotes,[3],active
same,cure rate,"[5]; 50 mg/kg/day i.p. for 4 days, until 60 days after infection",100%
same,Cured/Infected,[5],4/4
same,Mean Survival Days (MSD),[5],>60 days
O=[N+]([O-])c1nccn1CCCNc1ccnc2c(Cl)cccc12 [Compound 2],IC50,T. b. rhodesiense; [8],1290 nM
"O=C(Cn1ccnc1[N+](=O)[O-])NCc1ccccc1 [Benznidazole, reference compound]",IC50,[2],1430 nM
CC(=O)N1CCN(c2nnc(-c3ccc([N+](=O)[O-])s3)s2)CC1 [Compound 17f],IC50,in vitro,225000 nM
same,IC50,[1]; [7],1890 nM
CC(=O)N1CCN(c2nnc(-c3ncc([N+](=O)[O-])n3C)s2)CC1 [Compound 18f],IC50,in vitro,> 267000 nM
same,IC50,[2],468 nM
same,Cured/Infected,[5],3/4
same,Mean Survival Days (MSD),[5],>60 days
same,IC50,[1]; [7],89 nM
O=C(c1ccccc1)N1CCN(c2nnc(-c3ccc([N+](=O)[O-])s3)s2)CC1 [Compound 17g],IC50,in vitro,51000 nM
same,IC50,[1]; [7],438 nM
CC(C)N(CCO/N=C/c1ccc([N+](=O)[O-])s1)C(C)C [Compound 11],"MIC, trypanocidal activity",T. brucei,1 µg/mL
CN1CCN(c2nnc(-c3ncc([N+](=O)[O-])n3C)s2)CC1 [Compound 18d],IC50,in vitro,> 290000 nM
same,IC50,[2],462 nM
same,Cured/Infected,[5],1/4
same,Mean Survival Days (MSD),[5],>27.75 days
same,IC50,[1]; [7],142 nM
"Nc1nc(N)nc(Nc2ccc([As]3SCC(CO)S3)cc2)n1 (stereo not drawn) [Melarsoprol, reference compound]",IC50,Cytotoxicity in L6 cells,9600 nM
same,IC50,[1],4 nM
